Measured values from US8629132B2, “Kinase inhibitors” (Genosco, priority 2009, dated 2014).
“Also recorded” adds a separate entry of the source. Where a name gives a salt, the structure may show the parent alone.

Columns and labels:
RET = target: T1, RET (Homo sapiens, UniProt P07949); assay: Kinase inhibition assay: RET; assay type: biochemical
T1 construct: truncated human FAK, RET, FLT3, JAK2, and LRRK2; purchased Carna Biosciences
T1 sequence (P07949 658-1114 limits assumed): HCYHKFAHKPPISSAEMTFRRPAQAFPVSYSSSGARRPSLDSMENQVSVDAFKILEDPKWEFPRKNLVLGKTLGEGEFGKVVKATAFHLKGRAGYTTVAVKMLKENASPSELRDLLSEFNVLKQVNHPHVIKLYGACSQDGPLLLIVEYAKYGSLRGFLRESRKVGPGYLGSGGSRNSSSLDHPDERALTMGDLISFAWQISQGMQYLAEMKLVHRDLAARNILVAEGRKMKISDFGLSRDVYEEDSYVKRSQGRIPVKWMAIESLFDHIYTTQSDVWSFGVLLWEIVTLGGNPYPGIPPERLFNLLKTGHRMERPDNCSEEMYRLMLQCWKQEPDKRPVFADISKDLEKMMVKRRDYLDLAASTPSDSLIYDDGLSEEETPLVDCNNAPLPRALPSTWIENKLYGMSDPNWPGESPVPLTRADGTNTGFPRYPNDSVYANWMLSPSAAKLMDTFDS
Method: (§1) Compounds of the present invention were tested for their capacity to inhibit a kinase panel which includes, but are not limited to, spleen tyrosine kinase (SYK), zeta-chain-associated protein kinase 70 (ZAP70), PTK2B protein tyrosine kinase 2 (PYK2), focal adhesion kinase (FAK), provirus integration of maloney kinase 1 (PIM1), rearranged during transfection kinase (RET), Fms-like tyrosine kinase 3 (FLT3), Janus kinase 2 (JAK2), and leucine-rich repeat kinase 2 (LRRK2).
(§2) Inhibition of SYK, ZAP70, PYK2, FAK, PIM1, RET, FLT3, JAK2 and LRRK2 Kinase Activity
(§3) Compounds of the invention were initially diluted to 10 mM in 100% DMSO (CALBIOCHEM™) for storage and made into kinase buffer solution to create a compound concentration ranging from 1 uM and 10 uM. Serial dilutions of compounds of the invention were dispensed into a 96-well plate (GREINER BIOSCIENCES™) at 6 μL each. Purified full-length human SYK, ZAP70, PIM1, PYK2 and truncated human FAK, RET, FLT3, JAK2, and LRRK2 (CARNA BIOSCIENCES™) were diluted in kinase buffer and added to the compound solutions and pre-incubated for 30 minutes at room temperature (1 hour for PYK2). […] The reaction mixture was incubated for 1 hour (2 hours for PYK2). Following the incubation, the stop solution made with EDTA, water, and Lance detection buffer ([…]™) was added (12μL each) to stop phosphorylation. […] The IC50 value of test compound was calculated at Gradpad Prism 5 unless specified otherwise.

MV4-11 cells = assay: Cell viability assay: FLT3-ITD-positive cells; assay type: cell-based, human; conditions: Homo sapiens, MV4-11; 72-hour incubation; read-out: Viability of FLT3-ITD Induced Cancer Cell Line MV-4-11 (IC50 nM)
Method: Compounds of the invention were tested for their effects on inhibition of FLT3-ITD in human acute leukemia cell line (MV4-11). FLT3 is primarily expressed in immature hematopoietic progenitor as well as in mature myeloid cells. It belongs to type III receptor tyrosine kinase (RTK) family including KIT, FMS, and PDGFR. It is activated by binding to FL, which leads to increased kinase activity and activation of downstream signaling pathway including STATS, Ras, and PI3Kinase.
Compounds of the invention were tested for cell viability effect on MV4-11 cells. For cell viability assay, MV4-11 cells expressing human FLT3-ITD were obtained from the American Type Culture Collection (ATCC, Manassas, Va.). This cell line was maintained with an Roswell Park Memorial Institute (RPMI) medium (HyClone™) containing 10 bovine calf serum (BCS; Hyclone™) supplemented iron. The MV4-11 cells were seeded at 2×10^4 cells in 96-well culture plates, and serially diluted compound was then added. After a 72-hour incubation period at 37° C., cell viability was measured using the ATPLite 1 step assay (Perkin-Elmer™) that is based on the quantification of ATP from viable cells. CellTiter Aqueous assay (Promega™) was also performed in parallel as an orthogonal assay. IC50 values were calculated using nonlinear regression and defined as the concentration needed for a 50 reduction in luminescence or absorbance treated versus untreated control cells (Prism™ Software).

FLT3 = target: T2, FLT3 (Homo sapiens, UniProt P36888); assay: Kinase inhibition assay: FLT3; assay type: biochemical
T2 construct: truncated human FAK, RET, FLT3, JAK2, and LRRK2; purchased Carna Biosciences
T2 sequence (P36888 564-993 limits assumed): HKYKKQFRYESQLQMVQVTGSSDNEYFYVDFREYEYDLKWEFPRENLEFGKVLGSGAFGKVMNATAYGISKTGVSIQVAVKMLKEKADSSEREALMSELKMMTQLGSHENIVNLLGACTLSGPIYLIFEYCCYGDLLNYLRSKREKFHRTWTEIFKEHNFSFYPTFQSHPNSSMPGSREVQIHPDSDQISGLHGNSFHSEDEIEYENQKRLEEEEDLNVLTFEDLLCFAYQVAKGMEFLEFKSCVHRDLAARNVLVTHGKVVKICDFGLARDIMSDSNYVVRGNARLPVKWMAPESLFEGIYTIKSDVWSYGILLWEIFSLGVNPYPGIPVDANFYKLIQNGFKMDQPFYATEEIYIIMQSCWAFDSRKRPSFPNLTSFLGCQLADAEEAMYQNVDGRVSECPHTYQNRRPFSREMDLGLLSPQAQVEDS
Method: as §1, §2, §3

JAK2 = JAK2 (Homo sapiens, UniProt O60674); assay: Kinase inhibition assay: JAK2; assay type: biochemical; design: truncated human FAK, RET, FLT3, JAK2, and LRRK2; purchased Carna Biosciences
Chain of JAK2 (O60674 826-1132 limits assumed): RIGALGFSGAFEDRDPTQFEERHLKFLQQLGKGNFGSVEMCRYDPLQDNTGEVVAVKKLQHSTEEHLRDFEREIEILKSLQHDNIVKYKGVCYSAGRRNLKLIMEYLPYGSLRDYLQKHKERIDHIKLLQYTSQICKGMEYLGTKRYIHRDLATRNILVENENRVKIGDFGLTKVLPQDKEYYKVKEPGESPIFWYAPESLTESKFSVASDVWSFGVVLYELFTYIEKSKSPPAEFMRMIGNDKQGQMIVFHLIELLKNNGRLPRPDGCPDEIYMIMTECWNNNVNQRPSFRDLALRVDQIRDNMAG
Method: as §1, §2, §3

[1] = test system: TNF-α release in THP-1 cells; assay: SYK dependent TNF-α release assay (IgG stimulation); assay type: cell-based, human; conditions: for inhibition at 0.3 µM / inhibition at 1 µM: Homo sapiens; for percentage inhibition of TNF-α release compared with R406: IgG stimulated release
Method: (§4) Compounds of the present invention are tested for their effects on TNF-α release in human acute monocytic leukimia cell line (THP-1) to illustrate potential efficacy at the cellular level. TNF-α is a cytokine involved in systemic inflammation and is a member of a group of cytokines that stimulate the acute phase reaction. The primary role of TNF-α is in the regulation of immune cells. TNF-α is known to induce apoptotic cell death and inflammation and to inhibit early tumorigenesis and viral replication. Dysregulation and, in particular, overproduction of TNF-α have been implicated in a variety of human diseases, autoimmune disease, inflammation, arthritis and cancer.
(§5) Production or release of TNF-α is controlled by type of stimulus to which the cell responds. SYK activity is involved in mediating TNF-α production. When stimulated by IgG, cells increase TNF-α production in a SYK dependent manner (i.e., the SYK dependent pathway). However, when stimulated by lipopolysaccharide (LPS), they produce TNF-α in a SYK independent manner.
Compounds of the invention were tested for their TNF-α release effect on THP-1 cells. For SYK dependent TNF-α release assay (i.e., via IgG stimulation), THP-1 cells derived from human monocytic cells were obtained from the American Type Culture Collection (ATCC, Manassas, Va.). This cell line was maintained with an Roswell Park Memorial Institute (RPMI) medium (GIBCO™) containing 10 fetal bovine serum (FBS; GIBCO™) and 0.05 mM 2-mercaptoethanol. The THP-1 cells were seeded at 1×10^5 cells/100 μL/well into human IgG (10 μg/well, INVITROGENT™)-coated 96 well culture plate, and serially diluted compound was then added. After an 18-hour incubation period at 37° C., supernatants were collected for the determination of the TNF-α level by enzyme-linked immunosorbent assay (ELISA), and the remaining cells were subjected to an MTT (yellow tetrazolium salt) assay to determine the cytotoxic effects of compound.

[2] = test system: TNF-α release in THP-1 cells; assay: SYK independent TNF-α release assay (LPS stimulation); assay type: cell-based; conditions: Homo sapiens, 18-hour incubation
Method: as §4, §5
For SYK independent TNF-α release assay (i.e., via lipopolysaccharide (LPS)-stimulation), THP-1 cells derived from human monocytic cells were obtained from the American Type Culture Collection (ATCC, Manassas, Va.). This cell line was maintained with an RPMI medium (GIBCO™) containing 10 fetal bovine serum (FBS, GIBCO™) and 0.05 mM 2-mercaptoethanol. The THP-1 cells were seeded at 1×10^5 cells/100 μL/well into 96-well culture plates, and treated with lipopolysaccharide (1 μg/ml), and serially diluted compound was then added. After an 18-hour incubation period at 37° C., supernatants were collected for the determination of the TNF-α level by ELISA, and the remaining cells were subjected to an MTT assay to determine the cytotoxic effects.

SYK = target: T3, SYK (Homo sapiens, UniProt P43405); assay: Kinase inhibition assay: SYK; assay type: biochemical
T3 construct: Purified full-length human SYK, ZAP70, PIM1, PYK2; purchased Carna Biosciences
Method: as §1, §2, §3

[3] = THP-1 cells, IgG stimulation, 0.3 μM, 18-hour incubation
[4] = THP-1 cells, IgG stimulation, 1 μM, 18-hour incubation

Compound | inhibition at 0.3 µM [1, 3] | inhibition at 1 µM [1, 4] | inhibition at 0.3 µM [2] | inhibition at 1 µM [2] | further results
COc1cc(Nc2ncc(C)c(-n3cc(C)c(CN4CCCNCC4)c3)n2)cc(OC)c1OC [Compound 96, 4-(3-((1,4-diazepan-1-yl)methyl)-4-methyl-1H-pyrrol-1-yl)-5-methyl-N-(3,4,5-trimethoxyphenyl)pyrimidin-2-amine trihydrochloride] | – | – | – | – | IC50 (RET): 10.1 nM; IC50 (MV4-11 cells): 12.5 nM; IC50 (FLT3): 0.53 nM; IC50 (JAK2): 3.9 nM
Cc1cc(C)cc(Nc2ncc(F)c(-n3ccc(CN4CC[C@@H](O)C4)c3)n2)c1 [Compound 133, (R)-1-((1-(2-(3,5-dimethylphenyl-amino)-5-fluoropyrimidin-4-yl)-1H-pyrrol-3-yl)methyl)pyrrolidin-3-ol] | 86.3% | 99.4% | 13.8% | 14.2% | percentage inhibition of TNF-α release compared with R406 ([1]; 0.3 μM): greater that those exhibited by R406; also recorded: greater percentage inhibition
COc1cc(Nc2ncc(C)c(-n3cc(C)c(CN4CCCN(C(=O)C(C)(C)C)CC4)c3)n2)cc(OC)c1OC [Compound 97, 2,2-dimethyl-1-(4-((4-methyl-1-(5-methyl-2-(3,4,5-trimethoxyphenylamino)pyrimidin-4-yl)-1H-pyrrol-3-yl)methyl)-1,4-diazepan-1-yl)propan-1-one] | – | – | – | – | IC50 (RET): 35.8 nM; IC50 (MV4-11 cells): 79.2 nM; IC50 (FLT3): 3.6 nM; IC50 (JAK2): 65.1 nM
Cc1cc(C)cc(Nc2ncc(F)c(-n3cc(C)c(CN(C)C)c3)n2)c1 [Compound 80, 4-(3-((dimethylamino)methyl)-4-methyl-1H-pyrrol-1-yl)-N-(3,5-dimethylphenyl)-5-fluoropyrimidin-2-amine] | 51.5% | 91.1% | 8.2% | 12.5% | –
Cc1cc(C)cc(Nc2ncc(F)c(-n3cc(CN(C)C)c(C)n3)n2)c1 [Compound 77, 4-(4-((dimethylamino)methyl)-3-methyl-1H-pyrazol-1-yl)-N-(3,5-dimethylphenyl)-5-fluoropyrimidin-2-amine] | 35.3% | 69.5% | 42.2% | 36% | –
COc1cc(Nc2ncc(F)c(Nc3ccc4c(n3)NC(=O)C(C)(C)O4)n2)cc(OC)c1OC [Compound R406, R406, reference compound] | – | – | – | – | TNF-α Release Inhibition, IgG stimulation, At 0.3 μM [1, 3]: 49.9%; TNF-α Release Inhibition, IgG stimulation, At 1 μM [1, 4]: 87.4%
CCN(CC)CCNC(=O)c1c(C)[nH]c(/C=C2\C(=O)Nc3ccc(F)cc32)c1C [Sunitinib, reference compound] | – | – | – | – | IC50 (MV4-11 cells): 3.8 nM
Cc1cn(-c2ccnc(Nc3ccc4c(ccn4C)c3)n2)cc1CN1CC(O)C1 [Compound 52, 1-((4-methyl-1-(2-(1-methyl-1H-indol-5-ylamino)pyrimidin-4-yl)-1H-pyrrol-3-yl)methyl)azetidin-3-ol] | – | – | – | – | IC50 (SYK): 3.5 nM
Cc1cc(C)cc(Nc2ncc(F)c(-n3ccc(CN(C)C)c3)n2)c1 [Compound 132, 4-(3-((dimethylamino)methyl)-1H-pyrrol-1-yl)-N-(3,5-dimethylphenyl)-5-fluoropyrimidin-2-amine] | 85.9% | 94.5% | 3.1% | 8.2% | percentage inhibition of TNF-α release compared with R406 ([1]; 0.3 μM): greater that those exhibited by R406
C[C@@H]1C[C@H]2[C@@H]3CCC4=CC(=O)C=C[C@]4(C)[C@@]3(F)[C@@H](O)C[C@]2(C)[C@@]1(O)C(=O)CO [Dexamethasone, reference compound] | – | – | – | 68.4% | –
Cc1cc(Nc2nccc(-n3cc(CN4CC[C@@H](O)C4)c(C)n3)n2)cc(C)c1OCCN1CCCC1 [Compound 46, (R)-1-((1-(2-(3,5-dimethyl-4-(2-(pyrrolidin-1-yl)ethoxy)phenyl-amino)pyrimidin-4-yl)-3-methyl-1H-pyrazol-4-yl)methyl)pyrrolidin-3-ol] | – | – | – | – | IC50 (SYK): 5.9 nM
